Laboratory results published in ChEMBL document CHEMBL1136505, “Myxovirescin analogues via macrocyclic ring-closing metathesis” (2003).
The source made the active and inactive calls. The rule behind the calls is not given here.

Key:
Format in all cases: functional, organism-based
Hoylesella oralis [1] = assay: Antibacterial activity against Bacteroides oralis (ATCC 72708) at a concentration of 200 ug/mL; Active
Bacteroides ovatus [2] = assay: Antibacterial activity against Bacteroides ovatus (ATCC 66640) at a concentration of 200 ug/mL; Active
Prevotella buccae = assay: Antibacterial activity against Bacteroides buccae (ATCC 67792) at a concentration of 200 ug/mL; not active; settings: Segatella buccae
Pasteurella multocida [3] = assay: Antibacterial activity against Pasteurella multocida (ATCC 63560) at a concentration of 200 ug/mL; not active
Actinomyces sp. [4] = assay: Antibacterial activity against Actinomyces sp.(ATCC 70710) at a concentration of 200 ug/mL; Active
Propionibacterium [5] = assay: Antibacterial activity against Propionibacterium sp.(ATCC 72661) at a concentration of 200 ug/mL; Active
Bacteroides uniformis = assay: Antibacterial activity against Bacteroides uniformis (ATCC 62723) at a concentration of 200 ug/mL; not active
Staphylococcus aureus [6] = assay: Antibacterial activity against Staphylococcus aureus (ATCC NCTC 6571) at a concentration of 200 ug/mL; Active
Escherichia coli = assay: Antibacterial activity against Escherichia coli (ATCC NCTC 6571) at a concentration of 200 ug/mL; not active
Pasteurella sp. [7] = assay: Antibacterial activity against Pasteurella sp.(ATCC 69527) at a concentration of 200 ug/mL; not active
Corynebacterium sp. [8] = assay: Antibacterial activity against Corynebacterium sp. (ATCC 68984) at a concentration of 200 ug/mL; Active
Pasteurella sp. [9] = assay: Antibacterial activity against Pasteurella sp.(ATCC 67777) at a concentration of 200 ug/mL; not active
Porphyromonas gingivalis [10] = assay: Antibacterial activity against Porphyromonas gingivalis sp.(ATCC D23C) at a concentration of 200 ug/mL; Active
Porphyromonas canoris [11] = assay: Antibacterial activity against Porphyromonas canoris (ATCC NCTC 12836) at a concentration of 200 ug/mL; Active
Prevotella bivia = assay: Antibacterial activity against Bacteroides bivus (ATCC 64362) at a concentration of 200 ug/mL; not active
Fusobacterium sp. = assay: Antibacterial activity against Fusobacterium sp.(ATCC 74714) at a concentration of 200 ug/mL; not active
Pasteurella sp. [12] = assay: Antibacterial activity against Pasteurella sp.(ATCC 67535) at a concentration of 200 ug/mL; Active
Pasteurella multocida [13] = assay: Antibacterial activity against Pasteurella multocida (ATCC 61096) at a concentration of 200 ug/mL; not active
Porphyromonas canoris [14] = assay: Antibacterial activity against Porphyromonas canoris (ATCC NCTC 12835) at a concentration of 200 ug/mL; Active
[15] = tested on: Pseudoflavonifractor capillosus; assay: Antibacterial activity against Bacteroides capillosus (ATCC 60802) at a concentration of 200 ug/mL; not active
Pasteurella sp. [16] = assay: Antibacterial activity against Pasteurella sp.(ATCC 71886) at a concentration of 200 ug/mL; not active
Schaalia meyeri = assay: Antibacterial activity against Actinomyces meyeri (ATCC 61789) at a concentration of 200 ug/mL; Active
Fusobacterium mortiferum = assay: Antibacterial activity against Fusobacterium mortiferum (ATCC 63425) at a concentration of 200 ug/mL; not active
Pasteurella sp. [17] = assay: Antibacterial activity against Pasteurella sp.(ATCC 67535) at a concentration of 200 ug/mL; not active
Staphylococcus aureus [18] = assay: Antibacterial activity against Staphylococcus aureus (ATCC NCTC 6571) at a concentration of 200 ug/mL; not active
Propionibacterium [19] = assay: Antibacterial activity against Propionibacterium sp.(ATCC 72661) at a concentration of 200 ug/mL; not active
Porphyromonas gingivalis [20] = assay: Antibacterial activity against Porphyromonas gingivalis sp.(ATCC D23C) at a concentration of 200 ug/mL
Corynebacterium sp. [21] = assay: Antibacterial activity against Corynebacterium sp. (ATCC 68984) at a concentration of 200 ug/mL; not active
Bacteroides ovatus [22] = assay: Antibacterial activity against Bacteroides ovatus (ATCC 66640) at a concentration of 200 ug/mL; not active
Actinomyces sp. [23] = assay: Antibacterial activity against Actinomyces sp.(ATCC 70710) at a concentration of 200 ug/mL; not active
Hoylesella oralis [24] = assay: Antibacterial activity against Bacteroides oralis (ATCC 72708) at a concentration of 200 ug/mL; not active

Structure (SMILES)	Activity (Prevotella buccae)	Activity (Pasteurella multocida [3])	Activity (Bacteroides uniformis)	Activity (Escherichia coli)	Activity (Pasteurella sp. [7])	Activity (Pasteurella sp. [9])	Activity (Porphyromonas canoris [11])	Activity (Prevotella bivia)	Activity (Fusobacterium sp.)	Activity (Pasteurella multocida [13])	Activity (Porphyromonas canoris [14])	Activity [15]	Activity (Pasteurella sp. [16])	Activity (Schaalia meyeri)	Activity (Fusobacterium mortiferum)	other results
CCC[C@H]1OC(=O)CCCCCCCCCCCCCC/C=C/C[C@H](O)[C@H](O)[C@@H](O)[C@H](O)[C@H](O)CNC1=O	inactive	inactive	inactive	inactive	inactive	inactive	Active	inactive	inactive	inactive	Active	inactive	inactive	Active	inactive	Activity (Hoylesella oralis [1]): Active; Activity (Bacteroides ovatus [2]): Active; Activity (Actinomyces sp. [4]): Active; Activity (Propionibacterium [5]): Active; Activity (Staphylococcus aureus [6]): Active; Activity (Corynebacterium sp. [8]): Active; Activity (Porphyromonas gingivalis [10]): Active; Activity (Pasteurella sp. [12]): Active
CCC[C@@H]1OC(=O)CCCCCCCCCCCCCC/C=C/C[C@H](O)[C@H](O)[C@@H](O)[C@H](O)[C@H](O)CNC1=O	inactive	inactive	inactive	inactive	inactive	inactive	Active	inactive	inactive	inactive	Active	inactive	inactive	Active	inactive	Activity (Pasteurella sp. [17]): inactive; Activity (Staphylococcus aureus [18]): inactive; Activity (Propionibacterium [19]): inactive; Activity (Porphyromonas gingivalis [20]): inactive; Activity (Corynebacterium sp. [21]): inactive; Activity (Bacteroides ovatus [22]): inactive; Activity (Actinomyces sp. [23]): inactive; Activity (Hoylesella oralis [24]): inactive
